# According to publication PMC6853154 (Clinical and Translational Science, 2019):
# Entries after “also recorded” stand apart in the source; their conditions may differ. Read-outs that look alike come from different tables or passages of the source.
# Key:
# [1] = assay type: in vivo, human; conditions: for AUC(0-inf) / Cmax / Tmax / half-life: human, plasma, po; for AUC0–∞, mean percent change / Cmax, mean percent change / t1/2, mean percent change: multiple doses vs single dose of efavirenz
# CYP1A2 [2] = molecular target: T1, CYP1A2 (Homo sapiens, UniProt P05177); assay: In vivo CYP1A2 activity from plasma paraxanthine/caffeine metabolic ratio
# T1 sequence (P05177 1-516): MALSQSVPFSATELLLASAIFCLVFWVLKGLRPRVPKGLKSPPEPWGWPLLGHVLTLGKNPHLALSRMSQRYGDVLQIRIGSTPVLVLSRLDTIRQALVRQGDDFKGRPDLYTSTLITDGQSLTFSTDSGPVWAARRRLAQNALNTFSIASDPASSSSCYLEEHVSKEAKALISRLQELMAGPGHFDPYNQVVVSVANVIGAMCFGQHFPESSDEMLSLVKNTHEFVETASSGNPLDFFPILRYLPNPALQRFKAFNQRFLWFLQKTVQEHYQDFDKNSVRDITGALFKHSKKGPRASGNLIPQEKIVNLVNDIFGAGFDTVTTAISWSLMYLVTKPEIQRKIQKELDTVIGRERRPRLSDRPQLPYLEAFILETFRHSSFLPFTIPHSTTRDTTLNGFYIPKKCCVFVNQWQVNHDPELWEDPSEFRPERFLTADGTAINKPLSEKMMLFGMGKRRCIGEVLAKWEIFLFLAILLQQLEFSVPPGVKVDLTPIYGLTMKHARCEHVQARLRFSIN
# CYP2C8 = conditions: at therapeutically relevant concentrations; cited from earlier work
# CYP2C19 = conditions: at therapeutically relevant concentrations; cited from earlier work
# [3] = molecular target: T2, N‐acetyltransferase 2 (NAT2) (Homo sapiens, UniProt P11245); assay: In vivo NAT2 activity from urinary caffeine metabolic ratio; conditions: for NAT2 activity, urinary MR AFMU/(AFMU + 1 MU + 1 MX): mean ± SD
# T2 sequence (P11245 1-290): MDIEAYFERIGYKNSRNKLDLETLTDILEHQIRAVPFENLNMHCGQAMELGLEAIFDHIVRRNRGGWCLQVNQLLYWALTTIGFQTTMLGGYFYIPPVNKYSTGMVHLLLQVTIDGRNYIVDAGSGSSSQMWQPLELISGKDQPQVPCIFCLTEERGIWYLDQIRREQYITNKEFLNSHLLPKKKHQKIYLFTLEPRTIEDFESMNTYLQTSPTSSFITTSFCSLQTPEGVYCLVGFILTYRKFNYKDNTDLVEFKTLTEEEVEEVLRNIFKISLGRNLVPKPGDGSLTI
# CYP2C9 = conditions: at therapeutically relevant concentrations; cited from earlier work
# CYP2B6 = conditions: at therapeutically relevant concentrations; cited from earlier work
# xanthine oxidase (XO) = xanthine oxidase (XO) (Homo sapiens, UniProt P47989); assay: In vivo xanthine oxidase activity from urinary caffeine metabolic ratio; conditions: for XO activity, urinary MR (1 MU)/(1 MX + 1 MU): mean ± SD
# CYP1A2 [4] = molecular target: T1, CYP1A2; assay: In vivo CYP1A2 activity from urinary caffeine metabolic ratio
# CYP2A6 [5] = conditions: human liver microsomal preparations and/or expressed enzymes; cited from earlier work
# CYP1A2 [6] = molecular target: T1, CYP1A2; conditions: human liver microsomal preparations and/or expressed enzymes; cited from earlier work
# [7] = cited from earlier work
# CYP2A6 [8] = assay: In vivo CYP2A6 activity from urinary caffeine metabolic ratio; set-up: species or system human
# [9] = Efavirenz plasma exposure in healthy volunteers, also by CYP2B6 genotype; conditions: following a single dose and multiple doses of efavirenz
# [10] = HIV/tuberculosis‐coinfected patients, cited from earlier work
# CYP1A2 [11] = conditions: coadministration of potent CYP1A2 inhibitor; cited from earlier work
# [12] = after multiple doses of efavirenz
# [13] = chronic efavirenz relative to single‐dose phase
# [14] = multiple doses vs single dose of efavirenz
# [15] = multiple doses of efavirenz (600 mg/day, 17 days)
# [16] = multiple doses relative to single‐dose efavirenz
# xanthine oxidase (XO), sequence (P47989 whole entry): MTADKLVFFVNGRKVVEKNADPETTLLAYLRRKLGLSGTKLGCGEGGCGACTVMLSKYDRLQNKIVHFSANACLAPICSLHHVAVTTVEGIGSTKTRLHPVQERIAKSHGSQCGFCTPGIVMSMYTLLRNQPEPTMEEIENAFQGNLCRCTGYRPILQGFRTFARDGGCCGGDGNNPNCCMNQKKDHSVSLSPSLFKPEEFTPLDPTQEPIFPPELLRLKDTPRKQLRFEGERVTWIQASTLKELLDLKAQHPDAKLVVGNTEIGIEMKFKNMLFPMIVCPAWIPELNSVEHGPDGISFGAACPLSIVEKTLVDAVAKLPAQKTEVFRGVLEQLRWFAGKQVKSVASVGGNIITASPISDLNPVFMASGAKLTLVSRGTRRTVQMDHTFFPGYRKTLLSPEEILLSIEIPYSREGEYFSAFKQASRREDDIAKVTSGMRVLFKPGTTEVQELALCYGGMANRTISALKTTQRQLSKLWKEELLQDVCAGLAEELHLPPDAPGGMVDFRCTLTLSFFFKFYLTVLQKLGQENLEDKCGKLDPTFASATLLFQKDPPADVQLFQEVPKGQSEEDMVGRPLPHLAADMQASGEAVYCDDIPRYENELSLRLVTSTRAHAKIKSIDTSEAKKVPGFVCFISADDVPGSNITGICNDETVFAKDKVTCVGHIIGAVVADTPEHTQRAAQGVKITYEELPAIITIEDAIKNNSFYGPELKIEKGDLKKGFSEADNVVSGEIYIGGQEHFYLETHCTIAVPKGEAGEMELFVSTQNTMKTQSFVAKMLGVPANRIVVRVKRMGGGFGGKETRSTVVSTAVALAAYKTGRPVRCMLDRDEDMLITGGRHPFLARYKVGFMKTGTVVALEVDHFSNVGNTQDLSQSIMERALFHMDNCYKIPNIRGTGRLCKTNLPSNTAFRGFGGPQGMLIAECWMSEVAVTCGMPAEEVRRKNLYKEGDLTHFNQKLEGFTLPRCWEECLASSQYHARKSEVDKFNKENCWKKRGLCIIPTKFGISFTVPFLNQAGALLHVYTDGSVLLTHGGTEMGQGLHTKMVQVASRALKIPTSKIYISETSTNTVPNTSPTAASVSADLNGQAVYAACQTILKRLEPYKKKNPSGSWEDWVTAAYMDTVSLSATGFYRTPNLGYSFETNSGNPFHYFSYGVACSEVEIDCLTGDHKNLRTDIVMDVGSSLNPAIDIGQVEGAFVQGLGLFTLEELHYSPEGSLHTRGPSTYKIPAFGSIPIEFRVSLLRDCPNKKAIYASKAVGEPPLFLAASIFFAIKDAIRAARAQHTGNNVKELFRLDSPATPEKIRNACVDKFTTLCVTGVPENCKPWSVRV
smiles,measurement,setting,value
Cn1c(=O)c2c(ncn2C)n(C)c1=O [Caffeine],"Caffeine AUC0‐∞ by CYP2B6 genotype, in words","[1]; both efavirenz treatment groups, compared with *1/*1 genotype",significantly higher for *6/*6 genotype
same,AUC(0-inf),[1],17300 ± 11600 ng·h/mL
same,Cmax,[1],1820 ng/mL
same,Tmax,[1],1 h
same,half-life,[1],7.61 ± 8.29 h
same,AUC(0-inf),[1]; 150 mg,22700 ± 18400 ng·h/mL
same,Cmax,[1]; 150 mg,1900 ng/mL
same,Tmax,[1]; 150 mg,1 h
same,half-life,[1]; 150 mg,8.87 ± 4.98 h
same,"AUC0–∞, mean percent change",[1],46.2%
same,"Cmax, mean percent change",[1],17.4%
same,"t1/2, mean percent change",[1],32.5%
O=C1Nc2ccc(Cl)cc2[C@@](C#CC2CC2)(C(F)(F)F)O1 [efavirenz],Correlation (r s) of CYP1A2 activity with efavirenz AUC0–24 h,CYP1A2 [2]; [12],−0.61
same,Correlation (r s) of percent change in CYP1A2 activity with efavirenz AUC0–24 h,CYP1A2 [2]; [12],−0.41
same,Decrease of CYP1A2 activity (plasma MRs),CYP1A2 [2]; [13],38%
same,Interindividual range of percent change in CYP1A2 activity (plasma MRs),"CYP1A2 [2]; chronic efavirenz relative to single‐dose phase, 58 subjects",−78.2% to 31.7
same,"CYP1A2 activity, plasma MR, mean percent change",CYP1A2 [2]; [14],−38.1%
same,Correlation (r s) of CYP1A2 activity with efavirenz AUC0–∞,CYP1A2 [2]; single 600 mg dose of efavirenz,−0.32
same,"Inhibition of CYP2C8 in vitro, in words",CYP2C8,directly inhibits
same,"Inhibition of CYP2C19 in vitro, in words",CYP2C19,directly inhibits
same,"NAT2 activity, urinary MR AFMU/(AFMU + 1 MU + 1 MX)",[3]; [15],0.32 ± 0.22
same,"Effect on NAT2 activity (urinary MR), in words",[3]; [16],unaffected; also recorded: not significantly altered
same,"NAT2 activity, urinary MR, mean percent change",[3]; [14],4.5%
same,"NAT2 activity, urinary MR AFMU/(AFMU + 1 MU + 1 MX)",[3]; single 600 mg efavirenz dose,0.31 ± 0.21
same,"Inhibition of CYP2C9 in vitro, in words",CYP2C9,directly inhibits
same,"Inhibition of CYP2B6 in vitro, in words",CYP2B6,directly inhibits
same,"XO activity, urinary MR (1 MU)/(1 MX + 1 MU)",xanthine oxidase (XO); [15],0.37 ± 0.16
same,"Effect on XO activity (urinary MR), in words",xanthine oxidase (XO); [16],unaffected; also recorded: not significantly altered
same,"XO activity, urinary MR, mean percent change",xanthine oxidase (XO); [14],1.1%
same,"XO activity, urinary MR (1 MU)/(1 MX + 1 MU)",xanthine oxidase (XO); single 600 mg efavirenz dose,0.37 ± 0.16
same,Decrease of CYP1A2 activity measured by urinary MRs,CYP1A2 [4]; [13],28.9%
same,Interindividual range of percent change in urine MR (CYP1A2),CYP1A2 [4]; [13],−65.1% to 43.2
same,"CYP1A2 activity, urinary MR, mean percent change",CYP1A2 [4]; [14],−28.9%
same,"Inhibition/inactivation of CYP2A6 activity in vitro, in words",CYP2A6 [5],does not inhibit/inactivate
same,"Inhibition/inactivation of CYP1A2 activity in vitro, in words",CYP1A2 [6],"does not inhibit/inactivate; also recorded: neither a reversible inhibitor nor a mechanism‐based (i.e., time‐dependent) inactivator"
same,"Efavirenz exposure (AUC0–24), fold higher in CYP2B6*6/*6 vs CYP2B6*1/*1",[7]; multiple doses of efavirenz,2.5 fold
same,"Efavirenz exposure (AUC0–24), fold higher in CYP2B6*6/*6 vs CYP2B6*1/*6",[7]; multiple doses of efavirenz,2 fold
same,"Efavirenz exposure (AUC0–∞), fold higher in CYP2B6*6/*6 vs CYP2B6*1/*1",[7]; single dose of efavirenz,2.1 fold
same,"Efavirenz exposure (AUC0–∞), fold higher in CYP2B6*6/*6 vs CYP2B6*1/*6",[7]; single dose of efavirenz,1.8 fold
same,Increase of CYP2A6 activity,CYP2A6 [8]; [16],85%
same,"CYP2A6 activity, urinary MR, mean percent change",CYP2A6 [8]; [14],85.5%
same,Between‐subject differences in efavirenz exposure,[9],Approximately sevenfold
same,Reduction of model‐predicted exposure of isoniazid by efavirenz,[10]; fast acetylators,29%
same,"Effect of efavirenz on model‐predicted exposure of isoniazid, in words",[10]; slow acetylators,no effect
O=C1Nc2c(O)cc(Cl)cc2[C@@](C#CC2CC2)(C(F)(F)F)O1 [8‐hydroxyefavirenz],"Inhibition/inactivation of CYP1A2 activity in vitro, in words",CYP1A2 [6],no effect
"Cn1c(=O)[nH]c2ncn(C)c2c1=O [Paraxanthine, 1,7‐dimethylxanthine]",AUC(0-inf),[1],10800 ± 6100 ng·h/mL
same,Cmax,[1],504 ± 236 ng/mL
same,Tmax,[1],7 h
same,half-life,[1],10.8 ± 9.21 h
same,AUC(0-inf),[1]; 150 mg,8600 ± 5800 ng·h/mL
same,Cmax,[1]; 150 mg,358 ± 208 ng/mL
same,Tmax,[1]; 150 mg,7 h
same,half-life,[1]; 150 mg,12.2 ± 7.88 h
same,"AUC0–∞, mean percent change",[1],−8.6%
same,"Cmax, mean percent change",[1],−24.5%
same,"t1/2, mean percent change",[1],26.3%
COCCCC/C(=N\OCCN)c1ccc(C(F)(F)F)cc1 [fluvoxamine],Increase of plasma exposure of tizanidine,CYP1A2 [11],up to 30 fold
